Results reported in paper PMC5471521, “Novel selective β1-adrenoceptor antagonists for concomitant cardiovascular and respiratory disease” (The FASEB Journal, 2017).
Like-named read-outs stand apart in the source and are kept apart here.

Legend:
[1] = PK analysis in male Sprague-Dawley rats; type: in vivo; conditions: rat; for AUC(0-t) / half-life / clearance / Vd / Cmax / Tmax / bioavailability: male, Sprague-Dawley; for AUC(0-t) / half-life / clearance / Vd / Cmax / Tmax / AUC0-t/dose: hydrochloride salt forms; for half-life: read-out: t1/2, app (converted); for Vd: read-out: Vss
Procedure: Blood samples were centrifuged, supernatant plasma was removed, and plasma concentrations of compounds were determined by LC-MS. […] Studies were carried out by CDCO.

[2] = target: hERG potassium channel (Homo sapiens, UniProt Q12809); assay: hERG 3H-astemizole radioligand binding; conditions: 10 µM; concentrations >3000-fold β1-AR affinity
[3] = Protein binding by ultracentrifugation, human plasma; type: in vitro ADME; conditions: read-out: fu human plasma
Procedure: Protein binding of 1 µM NDD-713.HCl and -825.HCl in human and rat plasma, as well as human liver microsomes, was assessed by using the ultracentrifugation technique. Frozen human plasma (Australian Red Cross Blood Service, Melbourne, VIC, Australia) and rat plasma (male Sprague-Dawley rats; Charles River, Margate, Kent, United Kingdom) were thawed at 37°C. Human liver microsomes (XenoTech) were suspended in 0.1 M phosphate buffer (pH 7.4) at protein concentrations of 0.4 mg/ml. Samples were collected immediately as stability reference controls. Spiked plasma samples (but not microsome samples) were incubated at 37°C for 1 h. […] NDD-713.HCl and -825.HCl concentrations of noncentrifuged matrix and protein-free supernatant were determined by UPLC-MS relative to calibration standards prepared in the respective matrices. Total concentration (Ctotal) was the average measured concentration in […] samples maintained at 37°C, and unbound concentration (Cunbound) was the average measured concentration in protein-free supernatants from centrifuged samples (n = 3). The compound unbound fraction (fu) was calculated: fu = Cunbound/Ctotal. Compound degradation was assessed by comparing concentrations in noncentrifuged plasma samples that were incubated at 37°C with concentrations measured in the t = 0 noncentrifuged samples. […]

[4] = target: 5-HT2A (Homo sapiens, UniProt P28223); assay: Cerep receptor radioligand-binding assay
Procedure: […]; Ki (inhibition constant) was calculated by using the Cheng-Prusoff equation from the mean of duplicate determinations in cell-based receptor radioligand-binding assays. Cerep in vitro pharmacology profiling service was used (see the Supplemental Data for a list of the assays used).

[5] = test system: panel of 80 receptors and ion channels; assay: Cerep in vitro receptor selectivity profiling; type: binding; conditions: CGP20712A and LK204-545 at 10 μM, NDD-713 at 4.8 μM, NDD-825 at 2.4 μM
Procedure: Ki (inhibition constant) was calculated by using the Cheng-Prusoff equation from the mean of duplicate determinations in cell-based receptor radioligand-binding assays. Cerep in vitro pharmacology profiling service was used (see the Supplemental Data for a list of the assays used).

[6] = target: T1, human β1-AR (Homo sapiens, UniProt P08588); assay: Antagonism of cimaterol-induced 3H-cAMP accumulation in CHO-β1 cells; type: cell-based
T1 construct: expressed in transfected cells
Procedure: (§1) Confluent cells were examined (24-well plates, 5 h incubation at 37°C) as described in Baker ([45]). Antagonist Kd values were calculated from a rightward shift of the agonist concentration response curve by using the Gaddum equation as previously described ([46]).

[7] = target: T1, human β1-AR; assay: CRE-SPAP reporter gene assay in CHO-β1 cells; type: cell-based; conditions: agonist mode, n = 5
Procedure: cAMP response element (CRE)–secreted placental alkaline phosphatase (SPAP) production was measured in confluent cells (96-well plates, 5 h incubation at 37°C) as described in Baker ([46]). This assay is a sensitive measure of both cAMP and ERK1/2 MAPK pathways ([47]).

[8] = target: T2, human β2-AR (Homo sapiens, UniProt P07550); assay: Antagonism of cimaterol-induced 3H-cAMP accumulation in CHO-β2 cells; type: cell-based; conditions: cimaterol agonist, mean ± SEM, read-out: Log Kd,β2 (converted)
T2 construct: expressed in transfected cells
Procedure: as §1

[9] = Metabolic stability, rat hepatocytes; type: in vitro ADME
Procedure: NDD-713.HCl and -825.HCl were incubated (0.02, 0.1, or 0.5 μM at 37°C, 120 min) with human (XenoTech, Kansas City, KS, USA) or rat liver microsomes (BD Biosciences, Brea, CA, USA) at 0.4 mg/ml protein concentration. Metabolic reaction was initiated by addition of NADPH-regenerating system or NADPH-regenerating system with uridine diphosphate glucuronic acid. Samples were quenched at time points by acetonitrile addition. Control samples, which contained neither NADPH, nor uridine diphosphate glucuronic acid, were monitored for degradation. Compound concentrations were determined by ultraperformance LC-MS (UPLC-MS) relative to calibration standards that were prepared in quenched liver microsomes and fitted to exponential decay functions to determine first-order rate constants (k) for substrate depletion. These were used to calculate in vitro intrinsic clearance (CLint) values: CLint = k/microsomal protein content (0.4 mg protein/ml). Metabolic stability assays that used rat liver cytosol (BD Biosciences), human cryopreserved hepatocytes, or rat hepatocytes were carried out similarly. Average viable cell concentrations were determined by Trypan Blue exclusion methods (in the absence of test compounds). Studies were carried out by CDCO.

T1 sequence (P08588 whole entry): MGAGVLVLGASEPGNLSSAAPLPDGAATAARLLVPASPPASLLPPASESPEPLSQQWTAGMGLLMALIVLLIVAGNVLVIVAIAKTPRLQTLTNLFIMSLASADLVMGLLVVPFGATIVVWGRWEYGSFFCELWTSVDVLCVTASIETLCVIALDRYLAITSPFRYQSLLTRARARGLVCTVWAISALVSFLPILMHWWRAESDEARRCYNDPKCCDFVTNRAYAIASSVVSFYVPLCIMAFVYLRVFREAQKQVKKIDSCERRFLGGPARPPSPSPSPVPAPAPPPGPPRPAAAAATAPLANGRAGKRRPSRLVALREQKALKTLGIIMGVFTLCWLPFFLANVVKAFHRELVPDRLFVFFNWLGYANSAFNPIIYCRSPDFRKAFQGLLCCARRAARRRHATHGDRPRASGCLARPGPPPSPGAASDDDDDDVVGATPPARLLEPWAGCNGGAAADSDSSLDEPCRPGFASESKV
Chain of 5-HT2A (P28223 whole entry): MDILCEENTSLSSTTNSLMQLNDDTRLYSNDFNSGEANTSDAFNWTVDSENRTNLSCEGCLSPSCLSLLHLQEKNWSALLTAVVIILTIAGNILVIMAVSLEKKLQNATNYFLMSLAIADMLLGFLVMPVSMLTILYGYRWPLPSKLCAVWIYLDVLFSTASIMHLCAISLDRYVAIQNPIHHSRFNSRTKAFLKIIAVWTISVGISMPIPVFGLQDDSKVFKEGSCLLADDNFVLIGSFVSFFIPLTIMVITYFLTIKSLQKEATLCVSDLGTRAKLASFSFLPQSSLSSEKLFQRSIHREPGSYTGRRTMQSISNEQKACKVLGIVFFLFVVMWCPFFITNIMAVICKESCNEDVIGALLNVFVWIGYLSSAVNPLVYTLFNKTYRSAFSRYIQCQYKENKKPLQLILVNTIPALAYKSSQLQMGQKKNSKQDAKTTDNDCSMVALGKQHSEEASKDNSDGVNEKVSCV
T2 sequence (P07550 whole entry): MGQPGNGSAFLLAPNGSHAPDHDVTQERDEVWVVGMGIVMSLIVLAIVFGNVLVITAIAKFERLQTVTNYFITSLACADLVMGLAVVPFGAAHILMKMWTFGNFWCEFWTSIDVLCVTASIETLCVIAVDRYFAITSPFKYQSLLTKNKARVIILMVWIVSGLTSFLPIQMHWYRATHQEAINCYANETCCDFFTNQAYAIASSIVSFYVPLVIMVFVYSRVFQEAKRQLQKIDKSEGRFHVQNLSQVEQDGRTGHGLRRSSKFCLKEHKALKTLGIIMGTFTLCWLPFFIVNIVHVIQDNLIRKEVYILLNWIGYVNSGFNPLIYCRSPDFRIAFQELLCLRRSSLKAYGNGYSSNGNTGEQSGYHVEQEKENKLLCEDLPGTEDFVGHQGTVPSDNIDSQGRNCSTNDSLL
Chain of hERG potassium channel (Q12809 whole entry): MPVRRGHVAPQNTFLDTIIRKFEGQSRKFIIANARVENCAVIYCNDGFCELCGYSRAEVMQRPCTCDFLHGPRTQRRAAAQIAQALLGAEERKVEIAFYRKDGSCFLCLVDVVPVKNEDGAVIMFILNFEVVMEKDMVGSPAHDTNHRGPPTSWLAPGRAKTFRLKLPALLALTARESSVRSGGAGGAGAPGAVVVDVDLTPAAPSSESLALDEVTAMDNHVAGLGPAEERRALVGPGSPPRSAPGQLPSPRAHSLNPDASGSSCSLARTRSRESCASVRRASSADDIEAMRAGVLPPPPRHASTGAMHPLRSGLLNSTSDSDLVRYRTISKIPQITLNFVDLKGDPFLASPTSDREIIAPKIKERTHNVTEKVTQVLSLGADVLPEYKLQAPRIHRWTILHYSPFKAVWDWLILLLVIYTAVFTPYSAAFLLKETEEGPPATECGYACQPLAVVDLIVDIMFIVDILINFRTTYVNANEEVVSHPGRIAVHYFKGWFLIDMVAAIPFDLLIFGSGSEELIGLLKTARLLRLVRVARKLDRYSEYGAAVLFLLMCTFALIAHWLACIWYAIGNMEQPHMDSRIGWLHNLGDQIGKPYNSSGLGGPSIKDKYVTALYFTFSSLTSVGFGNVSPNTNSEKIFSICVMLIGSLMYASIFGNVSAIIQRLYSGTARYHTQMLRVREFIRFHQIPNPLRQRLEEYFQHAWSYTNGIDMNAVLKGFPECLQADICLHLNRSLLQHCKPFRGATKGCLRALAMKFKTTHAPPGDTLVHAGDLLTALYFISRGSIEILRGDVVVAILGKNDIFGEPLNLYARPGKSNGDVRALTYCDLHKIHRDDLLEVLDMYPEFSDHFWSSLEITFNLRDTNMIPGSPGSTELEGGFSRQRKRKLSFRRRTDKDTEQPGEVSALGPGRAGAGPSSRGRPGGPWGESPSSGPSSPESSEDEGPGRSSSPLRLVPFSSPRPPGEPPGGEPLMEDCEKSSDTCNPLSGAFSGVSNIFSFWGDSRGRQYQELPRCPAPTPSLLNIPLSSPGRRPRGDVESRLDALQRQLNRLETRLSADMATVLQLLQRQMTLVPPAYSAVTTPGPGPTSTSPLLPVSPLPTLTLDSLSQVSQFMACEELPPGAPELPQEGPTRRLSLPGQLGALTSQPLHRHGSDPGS

NC(=O)c1ccc(OCCNC[C@H](O)COc2ccc3c(c2)OC[C@@H](COCC2CC2)O3)cc1 [NDD-713]
AUC(0-t) ([1]; plasma, iv, i.v. 2 mg/kg): 1.2 ± 0.1 µM·h
half-life ([1]; plasma, iv, i.v. 2 mg/kg, mean ± SD n = 3): 1.7 ± 0.2 h
clearance ([1]; plasma, iv, i.v. 2 mg/kg, read-out: Plasma CLtotal): 62 ± 4 mL/min/kg
Vd ([1]; plasma, iv, i.v. 2 mg/kg): 4.3 ± 0.4 L/kg
AUC(0-t) ([1]; plasma, iv, i.v. 6 mg/kg): 4.6 ± 0.3 µM·h
half-life ([1]; plasma, iv, i.v. 6 mg/kg, mean ± SD n = 3): 1.6 ± 0.1 h
clearance ([1]; plasma, iv, i.v. 6 mg/kg, read-out: Plasma CLtotal): 43 ± 1 mL/min/kg
Vd ([1]; plasma, iv, i.v. 6 mg/kg): 3.6 ± 0.2 L/kg
AUC(0-t) ([1]; plasma, iv, i.v. 20 mg/kg): 14.7 ± 1 µM·h
half-life ([1]; plasma, iv, i.v. 20 mg/kg, mean ± SD n = 3): 2 h
clearance ([1]; plasma, iv, i.v. 20 mg/kg, read-out: Plasma CLtotal): 51 ± 2 mL/min/kg
Vd ([1]; plasma, iv, i.v. 20 mg/kg): 4.2 ± 0.2 L/kg
AUC(0-t) ([1]; plasma, po, p.o. 2 mg/kg): 0.6 ± 0.2 µM·h
Cmax ([1]; plasma, po, p.o. 2 mg/kg): 200 ± 100 nM
Tmax ([1]; plasma, po, p.o. 2 mg/kg): 0.5 h
AUC(0-t) ([1]; plasma, po, p.o. 10 mg/kg): 5.1 ± 0.2 µM·h
Cmax ([1]; plasma, po, p.o. 10 mg/kg): 2100 ± 600 nM
Tmax ([1]; plasma, po, p.o. 10 mg/kg): 0.75 h
half-life ([1]; plasma, po, p.o. 10 mg/kg): 1.5 h
AUC(0-t) ([1]; plasma, po, p.o. 20 mg/kg): 6.3 ± 0.3 µM·h
Cmax ([1]; plasma, po, p.o. 20 mg/kg): 2000 ± 100 nM
Tmax ([1]; plasma, po, p.o. 20 mg/kg): 0.75 h
half-life ([1]; plasma, po, p.o. 20 mg/kg): 2.1 h
bioavailability ([1]; plasma, po, 2 mg/kg): 50 ± 11%
bioavailability ([1]; plasma, po, 10 mg/kg): 77 ± 3%
bioavailability ([1]; plasma, po, 20 mg/kg): 44 ± 1%
clearance ([1]; whole blood, iv, i.v. 2 mg/kg, read-out: Blood CLtotal): 51 ± 3 mL/min/kg
clearance ([1]; whole blood, iv, i.v. 6 mg/kg, read-out: Blood CLtotal): 36 ± 1 mL/min/kg
clearance ([1]; whole blood, iv, i.v. 20 mg/kg, read-out: Blood CLtotal): 42 ± 1 mL/min/kg
Unbound plasma level at Cmax below β2-AR Kd ([1]; 20 mg/kg p.o.): at least 5 fold
Likely duration of β1-AR blockade ([1]; 20 mg/kg p.o., judged from PK profile vs Kd): 10 h
AUC0-t/dose ([1]; i.v. 2 mg/kg): 0.6 ± 0.1 μM ⋅ h/(mg/kg)
AUC0-t/dose ([1]; i.v. 6 mg/kg): 0.8 ± 0 μM ⋅ h/(mg/kg)
AUC0-t/dose ([1]; i.v. 20 mg/kg): 0.7 ± 0 μM ⋅ h/(mg/kg)
AUC0-t/dose ([1]; p.o. 2 mg/kg): 0.4 ± 0.1 μM ⋅ h/(mg/kg)
AUC0-t/dose ([1]; p.o. 10 mg/kg): 0.5 ± 0.1 μM ⋅ h/(mg/kg)
AUC0-t/dose ([1]; p.o. 20 mg/kg): 0.3 ± 0 μM ⋅ h/(mg/kg)
Affinity for the hERG channel [2]: no affinity for the hERG channel
fraction unbound at 1 h, 1 µM [3]: 0.15
β1-selectivity over the 5-HT2A receptor [4]: 510 fold
Ki ([4]; concentration-response, Cheng-Prusoff): 7.7 µM
Off-target binding in receptor and ion channel panel [5]: poor affinity for most other GPCRs and ion channels
Schild slope ([6]; CHO-β1 cells, 3 antagonist concentrations, 1 = competitive antagonism): 1.06 ± 0.03
Kd ([6]; Gaddum equation, cimaterol agonist, mean ± SEM, read-out: Log Kd,β1 (converted)): 0.00302 µM
SI1b (in vitro inhibition of functional response) = Kd,β2/Kd,β1 ([6]; Kd values from antagonism of cimaterol-induced 3H-cAMP accumulation, Table 2): 1202
β1 vs. β2 selectivity Kd,β2/Kd,β1 ([6]; from antagonism of cimaterol-induced 3H-cAMP accumulation): 1202
CRE-SPAP production relative to isoprenaline maximum [7]: no responses were observed
Kd [8]: 3.63 µM
CLint rat hepatocytes [9]: minimal
